{"source": "patent US8084221B2", "about": "“Method of screening for a drug candidate that increases ATP release from RBCs stimulated via the Gs or Gi pathway” (Saint Louis University, priority 2006, dated 2011)", "key": {"human erythrocytes [1]": {"system": "human erythrocytes", "assay": "ATP release from human erythrocytes (luciferin-luciferase assay)", "assay_type": "cell-based", "conditions": "for Mas7-induced ATP release in the presence of insulin: MAS7 10 μM, insulin 1 μM pre-incubation; for ATP release in response to Gs/Gi activation or reduced O2 tension, in the presence of insulin: insulin at concentrations reported in plasma of humans with prediabetes; for ATP release on incubation with activator: activator of Gs or Gi alone", "experimental": "(§1) Erythrocytes (20% hct) were incubated with Mastoparan 7 (10 μM) or its vehicle in the presence or absence of 1 uM insulin. ATP release from erythrocytes was measured at 5 minute intervals using the luciferan/luciferase assay. In separate studies, erythrocytes (50% hct) were incubated with vehicle, 10 uM cilostazol, 100 μM cilostazol, […], 3 uM insulin, and/or 10 uM Mastoparan 7 for determination of cAMP concentration. At timed intervals, 4 mL of ice cold ethanol containing 1 mM HCl was added to 1 mL of RBC suspension. After centrifugation at 14,000×g at 4° C. for 10 min., the supernatant was dried under vacuum. Samples were resuspended in assay buffer and cAMP concentration was determined in duplicate by EIA.\n(§2) Protocol A: Washed erythrocytes are incubated with insulin (0.1 nM-1 μM, Humalog®), or its vehicle (saline) for 30 min [28, 29, 47, 60]. Erythrocytes are incubated with either iloprost (1 μM), isoproterenol (10 μM) (receptor-mediated activators of Gs) or mastoparan 7 (MAS7, 10 μM) (a direct activator of Gi) or their vehicle (saline). After 15 min, cAMP accumulation and ATP release will be determined.\nProtocol C: To determine effects of direct activation of adenylyl cyclase and active cAMP analogs on ATP release from erythrocytes in the presence of insulin, washed erythrocytes are incubated with insulin (0.1 nM-1 μM) or its vehicle (saline). After 30 min, the cells are incubated with either the non-selective activator of adenylyl cyclase (AC) activity, forskolin (1 to 10 μM), or one of two active cAMP analogs that are resistant to degradation, SpcAMP (10 to 100 μM) or 8-bromo-cAMP (10 to 100 μM). ATP release will be measured at 5, 10 and 15 min after addition of forskolin or the active cAMP analogs. Controls: To ensure the effects of forskolin or the cAMP analogs are not due to effects of vehicle or time, identical experiments are conducted using their vehicles, N,Ndimethylformamide (DMF) or saline, respectively, in lieu of the active agent. Total intracellular ATP and free hemoglobin, a measurement of erythrocyte lysis, is determined.\n(§3) Measurement of ATP: ATP was measured using the luciferin-luciferase assay. A 200 μL sample of an erythrocyte suspension was injected into a cuvette containing 100 μL of 10 mg/ml crude firefly tail extract and 100 μL of a 0.5 mg/ml solution of D-luciferin. The light emitted from the reaction of ATP with the crude firefly tail extract was measured using a luminometer designed to detect a wavelength of 565 nm. The peak light emitted was compared to an ATP standard curve generated on the day of the experiment.\nExposure of Erythrocytes to Reduced Oxygen Tension: Washed erythrocytes were diluted in Krebs buffer containing bicarbonate (4.7 KCl, 2.0 mM CaCl2, 140.5 mM NaCl, 1.2 mM MgSO4) and equilibrated for 30 minutes in a tonometer (15% O2, 5% CO2, balance N2) (normoxia). Erythrocytes were then exposed to hypoxia by changing the equilibrating gas to 5% O2, 5% CO2, balance N2. ATP released from the erythrocytes as well as pH and blood gas tensions were determined at 5, 10 and 15 min after exposure to the various gas tensions. In separate studies, samples were collected into acidified ethanol for cAMP measurement."}, "human erythrocytes [2]": {"system": "human erythrocytes", "assay": "Total intracellular ATP of erythrocytes", "assay_type": "cell-based", "conditions": "human erythrocytes pre-incubated with insulin 1 μM", "experimental": "Measurement of Total Intracellular ATP: A known number of erythrocytes was lysed in distilled water at room temperature. ATP in the lysate, diluted 8,000 fold, was measured using ATP assay and the values normalized to ATP concentration per erythrocyte."}, "human erythrocytes [3]": {"system": "human erythrocytes", "assay": "cAMP concentration in human erythrocytes (EIA)", "assay_type": "cell-based", "conditions": "for Mas7-induced cAMP accumulation in the presence of insulin: MAS7 10 μM, insulin pre-incubation; for cAMP accumulation in response to Gs/Gi activation or reduced O2 tension, in the presence of insulin: insulin at concentrations reported in plasma of humans with prediabetes; for cAMP production / synthesis on incubation with activator: activator of Gs or Gi alone", "experimental": "as §1, §2\nAfter 30 min, the cells were incubated with either iloprost (1 μM), isoproterenol (10 μM), MAS7 (10 μM) or exposed to reduce O2 tension and cAMP accumulation and ATP release was determined. Control experiments: Identical experiments were performed with the vehicles for the various inhibitors. […] The concentrations chosen for rolipram and sildenafil PDE are those reported to be specific for the PDEs indicated.\nMeasurement of cAMP: 1 ml of erythrocyte suspension was added to 4 ml of ice cold ethanol containing 1 mM HCl and the mixture was centrifuged at 21,000×g for 10 minutes at 4° C. The supernatant was removed and stored overnight at −20° C. to precipitate remaining proteins. Samples were centrifuged a second time at 3,700×g for 10 minutes at 4° C. The supernatant was removed and dried under vacuum centrifugation. Concentrations of cAMP were determined by EIA."}, "[4]": {"system": "RBCs derived from humans having type 2 diabetes", "assay": "MAS7-induced ATP release by RBCs from humans with type 2 diabetes", "assay_type": "cell-based, human", "conditions": "type 2 diabetic RBCs, stimulation via the Gi pathway (MAS7), compared with RBCs of healthy individuals, FIG. 7", "experimental": "as §1, §3"}, "PDE4": {"system": "PDE4", "conditions": "reported in reference [54]; cited from earlier work"}}, "note": "“Also recorded” adds a separate entry of the source."}
{"compound": "insulin: insulin incubated with erythrocytes; Humalog or regular human insulin in the protocols", "values": [{"measurement": "Mas7-induced ATP release in the presence of insulin", "setting": "human erythrocytes [1]; FIG. 9", "value": "inhibit; also recorded: decline; also recorded: decreases; also recorded: reduces; also recorded: attenuated"}, {"measurement": "Mas7-induced ATP release in the presence of insulin", "setting": "human erythrocytes [1]; FIG. 9, listed as Insulin", "value": "reduces"}, {"measurement": "ATP release in response to Gs/Gi activation or reduced O2 tension, in the presence of insulin", "setting": "human erythrocytes [1]", "value": "inhibits; also recorded: attenuates"}, {"measurement": "ATP release in response to Gs/Gi activation or reduced O2 tension, in the presence of insulin", "setting": "human erythrocytes [1]; listed as Insulin", "value": "attenuates"}, {"measurement": "ATP release in response to active cAMP analogs resistant to hydrolysis by PDEs, in the presence of insulin", "setting": "human erythrocytes [1]; insulin pretreatment", "value": "no effect"}, {"measurement": "total ATP content", "setting": "human erythrocytes [2]", "value": "absence of changes"}, {"measurement": "Mas7-induced cAMP accumulation in the presence of insulin", "setting": "human erythrocytes [3]; FIG. 8", "value": "greater at lower (nM) insulin concentrations; also recorded: decline; also recorded: decreases; also recorded: reduces; also recorded: inhibition"}, {"measurement": "Mas7-induced cAMP accumulation in the presence of insulin", "setting": "human erythrocytes [3]; FIG. 8, listed as Insulin", "value": "reduces"}, {"measurement": "cAMP accumulation in response to Gs/Gi activation or reduced O2 tension, in the presence of insulin", "setting": "human erythrocytes [3]", "value": "inhibited; also recorded: limit; also recorded: decreases"}, {"measurement": "cAMP accumulation in response to Gs/Gi activation or reduced O2 tension, in the presence of insulin", "setting": "human erythrocytes [3]; listed as Insulin", "value": "decreases"}]}
{"compound": "CC(C)NCC(O)c1ccc(O)c(O)c1", "note": "(stereo not drawn) [isoproterenol, reference compound]", "values": [{"measurement": "ATP release on incubation with activator", "setting": "human erythrocytes [1]", "value": "stimulate"}, {"measurement": "cAMP production / synthesis on incubation with activator", "setting": "human erythrocytes [3]", "value": "stimulate"}]}
{"compound": "Mastoparan 7 [reference compound]", "values": [{"measurement": "ATP release on incubation with activator", "setting": "human erythrocytes [1]", "value": "ATP release"}, {"measurement": "ATP release on incubation with activator", "setting": "human erythrocytes [1]; listed as MAS7", "value": "stimulate"}, {"measurement": "cAMP production / synthesis on incubation with activator", "setting": "human erythrocytes [3]", "value": "increased cAMP production"}, {"measurement": "cAMP production / synthesis on incubation with activator", "setting": "human erythrocytes [3]; listed as MAS7", "value": "stimulate"}]}
{"compound": "O=C1CCc2cc(OCCCCc3nnnn3C3CCCCC3)ccc2N1", "note": "[cilostazol]", "values": [{"measurement": "MAS7-induced ATP release by diabetic RBCs treated with cilostazol", "setting": "[4]", "value": "normal levels of ATP"}, {"measurement": "MAS7-induced ATP release by diabetic RBCs treated with cilostazol", "setting": "[4]; listed as CILO", "value": "not significantly different from the levels released by RBCs of healthy individuals"}, {"measurement": "iloprost-induced cAMP accumulation after cilostazol pre-treatment", "setting": "human erythrocytes [3]; FIG. 11", "value": "concentration-dependent increases"}, {"measurement": "basal cAMP levels", "setting": "human erythrocytes [3]; in the presence of cilostazol", "value": "increased"}, {"measurement": "concentrations inhibiting PDE4 activity relative to those used here", "setting": "PDE4", "value": "ten-fold greater"}]}
{"compound": "COc1ccc(C2CNC(=O)C2)cc1OC1CCCC1", "note": "(stereo not drawn) [rolipram, reference compound]", "values": [{"measurement": "iloprost-induced cAMP accumulation with rolipram", "setting": "human erythrocytes [3]; rolipram 30 μM, n=6", "value": "no effect"}]}
{"compound": "CC#CCC(C)[C@H](O)/C=C/[C@@H]1[C@H]2C/C(=C/CCCC(=O)O)C[C@H]2C[C@H]1O", "note": "(stereo partly drawn) [iloprost, reference compound]", "values": [{"measurement": "ATP release on incubation with activator", "setting": "human erythrocytes [1]", "value": "stimulate"}, {"measurement": "cAMP production / synthesis on incubation with activator", "setting": "human erythrocytes [3]", "value": "stimulate"}]}
